The subject of one assay is PC-3. Put plainly: Cytotoxicity against human PC3 cells assessed as inhibition of cell proliferation after 48 hrs by sulforhodamine-B assay. It counts as functional, cell-based. Particulars: PC-3, 48 h. (In general: The SRB assay estimates cell density from bound dye.)
In another assay the test system is Caco-2. Description: Cytotoxicity against human Caco2 cells assessed as inhibition of cell proliferation after 48 hrs by sulforhodamine-B assay. It counts as functional, cell-based. Particulars: Caco-2, 48 h.
In another assay the test system is A549. Description: Cytotoxicity against human A549 cells assessed as inhibition of cell proliferation after 48 hrs by sulforhodamine-B assay. It counts as functional, cell-based. Particulars: A549, 48 h.
The next assay deals with THP-1. Description: Cytotoxicity against human THP1 cells assessed as inhibition of cell proliferation after 48 hrs by sulforhodamine-B assay. It counts as functional, cell-based. Particulars: THP-1, 48 h.
Assay [1] deals with HL-60. Put plainly: Induction of apoptosis in human HL60 cells assessed as accumulation of DNA at sub-G0 phase at 1 uM after 24 hrs by propidium iodide staining based flow cytometry (Rvb= 4.2%). In kind it is functional. In general terms: Flow cytometry measures light scatter and fluorescence of single cells or particles in a stream.
The subject of assay [2] is HL-60. Put plainly: Induction of apoptosis in human HL60 cells assessed as loss of mitochondrial membrane potential at 1 uM after 24 hrs by Rhodamine 123 staining based flow cytometry (reference value: 7%). In kind it is functional.
For assay [3], the system named is HL-60. Description: Induction of apoptosis in human HL60 cells assessed as intact mitochondrial membrane potential at 1 uM after 24 hrs by Rhodamine 123 staining based flow cytometry (reference value: 93.6%). It counts as functional.
Assay [4] concerns HL-60. Description: Induction of apoptosis in human HL60 cells assessed as loss of mitochondrial membrane potential at 50 uM after 24 hrs by Rhodamine 123 staining based flow cytometry (reference value: 7%). In kind it is functional.
In assay [5] the test system is HL-60. Put plainly: Induction of apoptosis in human HL60 cells assessed as condensation and fragmentation of nuclei at 50 to 100 uM after 24 hrs by DAPI staining based fluorescence microscopic analysis. It counts as functional, cell-based.
Assay [6] relates to HL-60. Description: Induction of apoptosis in human HL60 cells assessed as accumulation of DNA at sub-G0 phase at 10 uM after 24 hrs by propidium iodide staining based flow cytometry (Rvb= 4.2%). In kind it is functional.
The test system of assay [7] is HL-60. Put plainly: Induction of apoptosis in human HL60 cells assessed as DNA fragmentation at 50 uM after 24 hrs by agarose gel electrophoresis analysis. In kind it is functional, cell-based.
Assay [8] concerns HL-60. Description: Induction of apoptosis in human HL60 cells assessed as accumulation of DNA at sub-G0 phase at 100 uM after 24 hrs by propidium iodide staining based flow cytometry (Rvb= 4.2%). It counts as functional.
The subject of assay [9] is HL-60. Description: Induction of apoptosis in human HL60 cells assessed as accumulation of DNA at sub-G0 phase at 50 uM after 24 hrs by propidium iodide staining based flow cytometry (Rvb= 4.2%). It counts as functional.
Assay [10] relates to HL-60. Description: Induction of apoptosis in human HL60 cells assessed as loss of mitochondrial membrane potential at 10 uM after 24 hrs by Rhodamine 123 staining based flow cytometry (reference value: 7%). In kind it is functional.
Assay [11] relates to HL-60. Description: Induction of apoptosis in human HL60 cells assessed as intact mitochondrial membrane potential at 50 uM after 24 hrs by Rhodamine 123 staining based flow cytometry (reference value: 93.6%). In kind it is functional.
Assay [12] has as its system HL-60. Description: Induction of apoptosis in human HL60 cells assessed as loss of mitochondrial membrane potential at 30 uM after 24 hrs by Rhodamine 123 staining based flow cytometry (reference value: 7%). It counts as functional.
The test system of assay [13] is HL-60. Put plainly: Induction of apoptosis in human HL60 cells assessed as intact mitochondrial membrane potential at 10 uM after 24 hrs by Rhodamine 123 staining based flow cytometry (reference value: 93.6%). In kind it is functional.
Assay [14] has as its system HL-60. Description: Induction of apoptosis in human HL60 cells assessed as mitochondrial damage and loss of mitochondrial membrane potential after 24 hrs by Rhodamine 123 staining based flow cytometry. In kind it is functional, cell-based.
Assay [15] concerns HL-60. Description: Induction of apoptosis in human HL60 cells assessed as accumulation of DNA at sub-G0 phase at 30 uM after 24 hrs by propidium iodide staining based flow cytometry (Rvb= 4.2%). In kind it is functional.
Assay [16] relates to HL-60. Put plainly: Induction of apoptosis in human HL60 cells assessed as intact mitochondrial membrane potential at 30 uM after 24 hrs by Rhodamine 123 staining based flow cytometry (reference value: 93.6%). In kind it is functional.

Structures are written as SMILES. Active and inactive are the calls of the source. The calls are words filed in the database; no cut-off is given here.

As usually defined, the IC50 is the point on the concentration scale where inhibition reaches its midpoint.

Regarding `COC(=O)[C@H]1C[C@@H](c2coc3ccc(Cl)cc3c2=O)N(c2ccccc2)O1` (relative stereo), the IC50 in the assay with PC-3, in the assay with Caco-2, in the assay on A549 and in the assay on THP-1 was greater than 60 µM in each case.

For `O=c1c([C@@H]2C[C@H](c3ccccc3)ON2c2ccccc2)coc2ccc(Br)cc12` (relative stereo), the IC50 in the assay on PC-3 is 60 µM; in the assay on Caco-2 it was greater than 60 µM; with A549, 51 µM; in the assay on THP-1, 60 µM.

With `O=C1[C@H]2[C@H](ON(c3ccccc3)[C@@H]2c2coc3ccc(Br)cc3c2=O)C(=O)N1c1ccccc1` (relative stereo), the IC50 was found to be 13.3 µM in the assay with PC-3, 20.3 µM in the assay with Caco-2, 17 µM in the assay on A549 and 22.3 µM in the assay with THP-1.

Regarding `CCO[C@H]1C[C@@H](c2coc3ccccc3c2=O)N(c2ccccc2)O1` (relative stereo), the IC50 in the assay with PC-3, with Caco-2, with A549 and in the assay with THP-1 was greater than 60 µM in each case.

`CCO[C@H]1C[C@@H](c2coc3ccc(F)cc3c2=O)N(c2ccccc2)O1` (relative stereo): the IC50 in the assay with PC-3 was 31.7 µM; in the assay on Caco-2, greater than 60 µM; with A549, 26.4 µM; in the assay with THP-1, greater than 60 µM.

For `COC(=O)[C@@]1(C)C[C@@H](c2coc3ccc(Br)cc3c2=O)N(c2ccccc2)O1` (relative stereo), the concentration for half-maximal inhibition (IC50) in the assay with PC-3 is greater than 60 µM; in the assay on Caco-2, greater than 60 µM; in the assay on A549, 9.9 µM; in the assay with THP-1, 14.7 µM.

Consider `O=c1c([C@@H]2C[C@H](c3ccccc3)ON2c2ccccc2)coc2cc(Cl)c(Cl)cc12` (relative stereo), for which the IC50 in the assay on PC-3 was found to be 32 µM; in the assay with Caco-2, 23.5 µM; with A549 it was 43 µM; in the assay with THP-1, 38 µM.

`Cc1ccc2occ([C@@H]3C[C@H](OCC(C)C)ON3c3ccccc3)c(=O)c2c1` (relative stereo): the IC50 in the assay with PC-3 is 37.7 µM; in the assay with Caco-2 it was greater than 60 µM; in the assay on A549, 17.1 µM; in the assay on THP-1, 21.5 µM.

Turning to `O=c1c([C@@H]2C[C@H](c3ccccc3)ON2c2ccccc2)coc2ccccc12` (relative stereo), the IC50 with PC-3, in the assay with Caco-2, with A549 and in the assay with THP-1 was greater than 60 µM in each case.

On to `COC(=O)[C@@]1(C)C[C@@H](c2coc3ccc(F)cc3c2=O)N(c2ccccc2)O1` (relative stereo), for which the half-maximal inhibitory concentration (IC50) in the assay with PC-3 stood at 31.3 µM; in the assay on Caco-2, 29.5 µM; in the assay with A549, 20.3 µM; with THP-1, 47 µM.

For `O=c1c([C@@H]2C[C@H](c3ccccc3)ON2c2ccccc2)coc2ccc(F)cc12` (relative stereo), the IC50 in the assay on PC-3 was 49 µM; with Caco-2 it was 60 µM; with A549 it was 51.5 µM; in the assay on THP-1, 54.7 µM.

Regarding `CC[C@@]1(O)C(=O)OCc2c1cc1n(c2=O)Cc2cc3ccccc3nc2-1` [CAMPTOTHECIN], the results for the Activity in the assay with HL-60 [1], in the assay on HL-60 [2] and with HL-60 [3] were 61.8%, 53.3% and 46.1%, respectively.

Consider `O=C1[C@H]2[C@H](ON(c3ccccc3)[C@@H]2c2coc3ccc(F)cc3c2=O)C(=O)N1c1ccccc1` (relative stereo), for which the IC50 in the assay on PC-3 was greater than 60 µM; with Caco-2, greater than 60 µM; in the assay on A549 it was 13.5 µM; in the assay with THP-1 it was 43.5 µM.

With `CCO[C@H]1C[C@@H](c2coc3cc(Cl)c(Cl)cc3c2=O)N(c2ccccc2)O1` (relative stereo), the IC50 was greater than 60 µM in the assay with PC-3, greater than 60 µM in the assay on Caco-2, 19.8 µM in the assay with A549 and 16.5 µM in the assay on THP-1.

On to `NC(=O)[C@H]1C[C@@H](c2coc3ccccc3c2=O)N(c2ccccc2)O1` (relative stereo), for which the IC50 in the assay on PC-3, in the assay on Caco-2, in the assay on A549 and in the assay on THP-1 was greater than 60 µM each time.

Regarding `CO[C@@]12[C@H](COC(N)=O)C3=C(C(=O)C(C)=C(N)C3=O)N1C[C@@H]1N[C@@H]12` [MITOMYCIN], the IC50 with A549 was 0.4 µM.

Consider `COC(=O)[C@H]1C[C@@H](c2coc3ccccc3c2=O)N(c2ccccc2)O1` (relative stereo), for which the IC50 in the assay with PC-3, with Caco-2, in the assay with A549 and in the assay on THP-1 was greater than 60 µM in each case.

In the case of `N#C[C@H]1C[C@@H](c2coc3ccc(Cl)cc3c2=O)N(c2ccccc2)O1` (relative stereo), the IC50 came out at 41 µM in the assay with PC-3, 39 µM in the assay on Caco-2, 40 µM with A549 and 35 µM in the assay on THP-1.

For the compound `CCO[C@H]1C[C@@H](c2coc3ccc(Br)cc3c2=O)N(c2ccccc2)O1` (relative stereo), the IC50 in the assay on PC-3 was greater than 60 µM; with Caco-2, greater than 60 µM; in the assay with A549, 21.5 µM; in the assay with THP-1, greater than 60 µM.

As to `O=c1c([C@@H]2C[C@H](c3ccncc3)ON2c2ccccc2)coc2ccccc12` (relative stereo), the IC50 with PC-3 is 46 µM; in the assay on Caco-2, 37 µM; with A549 it was 19.3 µM; with THP-1, 16.4 µM.

On to `CCO[C@H]1C[C@@H](c2coc3ccc(C)cc3c2=O)N(c2ccccc2)O1` (relative stereo), for which the IC50 with PC-3 was found to be 39 µM; in the assay on Caco-2 it was 31 µM; with A549, 20.7 µM; with THP-1, 41 µM.

Consider `Cc1ccc2occ([C@@H]3C[C@H](c4ccccc4)ON3c3ccccc3)c(=O)c2c1` (relative stereo), for which the IC50 is greater than 60 µM with PC-3, 31.7 µM in the assay with Caco-2, 49 µM in the assay with A549 and greater than 60 µM in the assay with THP-1.

Consider `Cc1ccc2occ([C@@H]3[C@H]4C(=O)N(c5ccccc5)C(=O)[C@H]4ON3c3ccccc3)c(=O)c2c1`, for which the IC50 was 11.1 µM in the assay on PC-3, greater than 60 µM in the assay on Caco-2, greater than 60 µM in the assay with A549 and greater than 60 µM with THP-1.

Turning to `COC(=O)[C@@]1(C)C[C@@H](c2coc3ccc(C)cc3c2=O)N(c2ccccc2)O1` (relative stereo), the Activity with HL-60 [4] is 53.9%; with HL-60 [6], 4.9%; with HL-60 [8] it was 50.2%; with HL-60 [9], 44.6%; with HL-60 [10] it was 7.9%; in the assay on HL-60 [11] it was 45.7%. Besides, the Activity with HL-60 [12] is 36.6%; with HL-60 [13], 92%; in the assay with HL-60 [14], “Dose-dependent effect”; in the assay with HL-60 [15] it was 41.6%; in the assay on HL-60 [16], 62.9%. Besides, the result with HL-60 [5] and in the assay with HL-60 [7] was Active. In addition, the concentration for half-maximal inhibition (IC50) in the assay with PC-3 was greater than 60 µM; in the assay with Caco-2 it was 19.7 µM; in the assay on A549, 0.7 µM; in the assay on THP-1, 7.3 µM.

These data come from ChEMBL document CHEMBL3217684, “Synthesis and cytotoxicity evaluation of regioisomeric substituted N-phenyl-3-(chrom-4-one-3-yl)-isoxazolidines: induction of apoptosis through a mitochondrial-dependent pathway” (Medchemcomm, 2013).
